In US20250152545A1, “NOVEL ANTIVIRAL COMPOSITIONS COMPRISING OLEIC ACID” (SUBINTRO LIMITED, priority 2021, published 2025):

How the values were obtained:
Assay type in all cases: cell-based
[1] = test system: SARS-COV-2 (strain BetaCoV/France/IDF0571/2020); experiment: SARS-COV-2 viral load in apical wash of infected ALI cultured human nasal epithelium (RT-PCR); conditions: apical treatment; apilimod (as mesylate) 2 mg/ml 50 uL and/or surfactants 0.15% w/w polysorbate 80 + 0.2% w/w oleic acid; apical wash 48 hrs post inoculation; MOI 0.1
From the text: Primary human nasal, trachea, and bronchial epithelial cells can be cultured and differentiated at an air-liquid interface (ALI), forming a pseudostratified mucociliary airway epithelium that is composed of ciliated cells, goblet cells, club cells, and basal cells with an arrangement closely reflective of an in vivo cellular organization. This in vitro model of human airway epithelium (HAE) cultured at an ALI (HAE-ALI) closely recapitulates many important characteristics of respiratory virus-host cell interactions seen in the infected upper and lower airways in vivo and has been used to study many human respiratory viruses, including SARS-COV-2. […]
Virus load was quantified by RT-PCR as reported by Pizzorno et al. (Cell Rep Med. 1 (4): 100059, 2020). […] Viral RNA will be quantified by RT-qPCR (Express One-Step Superscript™ qRT-PCR kit, Invitrogen). SARS-COV-2-specific primer and probes used for viral genome quantification as follows: Target: ORF1b-nsp14 Forward primer (HKU-ORF1b-nsp14F) 5′-[…]-3′ Reverse primer (HKU-ORF1b-nsp14R) 5′-[…]-3′ Probe (HKU-ORF1b-nsp141P) 5′-FAM-[…]-TAMRA-3′. Ct data were determined and relative changes in gene expression were calculated using the […] and shown as the fold reduction of genome copy number (ORF1b-nsp14 gene of SARS-COV-2) relative to the mean of vehicle treated infected control.

[2] = test system: SARS-COV-2 infected ALI cultured human nasal epithelium; conditions: apical treatment, apilimod (as mesylate) 2 mg/ml 50 uL; 48 hrs post virus inoculation
[3] = test system: H1N1 (strain A/Switzerland/7717739/2013)

Row | SMILES | reduction of viral load (genome copy number, ORF1b-nsp14) compared with virus infection control [1] | inhibition of virus-induced reduction in TEER [2] | reduction of viral load (assay control) ([3]; 10 µM in a basal chamber, Day 0, 24 hrs post inoculation) | reduction of viral load (genome copy number) compared with virus infection control ([3]; apical treatment, oseltamivir carboxylate 1 μM and/or surfactants 0.15% polysorbate 80 + 0.2% oleic acid, apical wash 24 hrs post inoculation)
1 | Cc1cccc(/C=N/Nc2cc(N3CCOCC3)nc(OCCc3ccccn3)n2)c1 [apilimod] | 0.1 log | 48% | – | –
2 | CCC(CC)O[C@@H]1C=C(C(=O)O)C[C@H](N)[C@H]1NC(C)=O [oseltamivir carboxylate] | – | – | 1.7 log | 1.0 log
